Laboratory results taken from patent US20220018836A1, “NON-LIVING SURROGATE INDICATORS AND METHODS FOR SANITATION VALIDATION” (priority 2018, published 2022).

Legend:
phage T7 = assay: Survivor population of phage T7 after sanitizer treatment; type: cell-based; settings: 2 min, 4° C.
E. coli O157:H7 cells = type: cell-based, Escherichia coli O157:H7

SMILES	inactivation of phage T7 (phage T7; PAA at 80 ppm, 9 log inoculum level)	complete inactivation of phages (phage T7; PAA up to 80 ppm, 9 log inoculum level)	further inactivation of E. coli O157:H7 with an increase of PAA concentration (E. coli O157:H7 cells)	inactivation of E. coli O157:H7 cells (E. coli O157:H7 cells) [log]	survivors of E. coli O157:H7 (E. coli O157:H7 cells)	complete inactivation of inoculated phages (phage T7; lowest concentration tested, 2 ppm of free chlorine)
CC(=O)OO [PAA, peracetic acid]	more than 6 log	complete inactivation of phages (9 log inoculum level) was not observed	no significant inactivation	2	around 4 log	
OCl [chlorine, sodium hypochlorite]						complete inactivation of inoculated phages was observed
